Measurements published in ChEMBL document CHEMBL1148616, “Synthesis and structure-activity relationships of novel poly(ADP-ribose) polymerase-1 inhibitors” (Bioorg Med Chem Lett, 2006).

What follows are compounds tested against Poly [ADP-ribose] polymerase 1 (Homo sapiens, UniProt P09874).
Poly [ADP-ribose] polymerase 1, sequence (P09874 whole entry): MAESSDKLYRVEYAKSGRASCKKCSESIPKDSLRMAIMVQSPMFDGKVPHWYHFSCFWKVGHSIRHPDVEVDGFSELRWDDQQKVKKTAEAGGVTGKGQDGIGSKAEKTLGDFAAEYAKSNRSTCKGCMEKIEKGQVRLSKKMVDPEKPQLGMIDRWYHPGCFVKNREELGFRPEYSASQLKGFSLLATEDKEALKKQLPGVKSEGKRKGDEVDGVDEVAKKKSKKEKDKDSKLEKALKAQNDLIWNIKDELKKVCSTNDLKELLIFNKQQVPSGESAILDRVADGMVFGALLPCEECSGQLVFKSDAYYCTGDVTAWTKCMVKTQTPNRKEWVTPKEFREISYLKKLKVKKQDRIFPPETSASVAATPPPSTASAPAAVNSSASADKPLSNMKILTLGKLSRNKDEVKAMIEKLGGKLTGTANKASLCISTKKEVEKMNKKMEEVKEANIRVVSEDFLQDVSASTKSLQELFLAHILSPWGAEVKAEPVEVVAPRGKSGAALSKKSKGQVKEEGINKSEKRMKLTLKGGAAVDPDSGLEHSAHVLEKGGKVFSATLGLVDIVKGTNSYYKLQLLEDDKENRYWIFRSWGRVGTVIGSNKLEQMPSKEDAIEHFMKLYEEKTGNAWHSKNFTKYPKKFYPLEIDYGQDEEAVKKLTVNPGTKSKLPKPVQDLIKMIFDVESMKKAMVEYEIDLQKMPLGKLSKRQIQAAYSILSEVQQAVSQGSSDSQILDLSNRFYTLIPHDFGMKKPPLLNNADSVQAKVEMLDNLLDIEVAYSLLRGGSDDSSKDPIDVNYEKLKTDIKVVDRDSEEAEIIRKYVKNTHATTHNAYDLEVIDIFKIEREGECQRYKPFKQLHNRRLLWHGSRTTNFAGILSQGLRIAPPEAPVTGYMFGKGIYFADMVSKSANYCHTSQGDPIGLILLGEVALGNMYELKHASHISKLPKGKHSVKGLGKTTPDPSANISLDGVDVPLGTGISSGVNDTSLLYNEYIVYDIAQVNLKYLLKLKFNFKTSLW
Description: Inhibitory activity against human PARP1 expressed in PC12 cells
With `O=C1NC(=O)c2c1c1c(c3sc4ccccc4c23)CCC1` the IC50 was over 10 µM. For `Nc1ccc2c3c(cccc13)C(=O)NC2=O`, the IC50 was 0.026 µM. Compound `O=C1NC(=O)c2c1c1c(c3oc4ccccc4c23)CCC1` has an IC50 of over 10 µM. `CCCc1c2c(c3c([nH]c4ccccc43)c1CC)C(=O)NC2=O` showed an IC50 of over 10 µM. `O=C1NC(=O)c2c1c1ccccc1c1[nH]c3ccccc3c21` gave an IC50 of over 10 µM.
